Target: T1, MAG1 (Shouchella lehensis, UniProt X5CPN2)
T1 construct: gene BleG1_0772; full-length ORF, 582 residues, pET21a(+) in E. coli BL21(DE3), Ni-NTA purified, tag kept (His-tag western); 68 kDa SDS-PAGE; monomer/dimer mixture; primers start MNRAGII
Assay: DNS reducing sugar assay, Lineweaver-Burk plot
Assay type: biochemical
Details: 50 mM potassium phosphate pH 7.0, 40°C; hydrolysis; read-out: Km (mg ml^-1) (converted)
Description: DNS reducing sugar assay, Lineweaver-Burk plot on MAG1

T1 sequence (X5CPN2 entry or part of it): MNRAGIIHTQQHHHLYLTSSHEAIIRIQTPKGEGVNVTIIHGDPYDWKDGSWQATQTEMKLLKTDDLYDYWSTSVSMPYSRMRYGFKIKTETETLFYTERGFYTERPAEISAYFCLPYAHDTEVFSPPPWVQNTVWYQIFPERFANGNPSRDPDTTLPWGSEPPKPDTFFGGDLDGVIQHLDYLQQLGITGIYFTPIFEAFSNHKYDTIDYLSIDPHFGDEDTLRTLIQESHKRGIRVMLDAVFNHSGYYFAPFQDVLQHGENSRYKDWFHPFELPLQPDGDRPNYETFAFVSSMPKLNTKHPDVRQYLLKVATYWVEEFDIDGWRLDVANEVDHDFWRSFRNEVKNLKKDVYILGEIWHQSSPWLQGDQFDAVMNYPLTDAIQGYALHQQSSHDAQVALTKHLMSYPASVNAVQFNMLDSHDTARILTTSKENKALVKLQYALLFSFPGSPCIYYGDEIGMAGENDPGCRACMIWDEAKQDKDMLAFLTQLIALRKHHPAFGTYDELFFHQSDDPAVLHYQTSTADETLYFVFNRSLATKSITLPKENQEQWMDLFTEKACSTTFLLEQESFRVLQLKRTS

Km: 1120 µM
Compound: OC[C@H]1O[C@@H]2O[C@H]3[C@H](O)[C@@H](O)[C@@H](O[C@H]4[C@H](O)[C@@H](O)[C@@H](O[C@H]5[C@H](O)[C@@H](O)[C@@H](O[C@H]6[C@H](O)[C@@H](O)[C@@H](O[C@H]7[C@H](O)[C@@H](O)[C@@H](O[C@H]8[C@H](O)[C@@H](O)[C@@H](O[C@H]1[C@H](O)[C@H]2O)O[C@@H]8CO)O[C@@H]7CO)O[C@@H]6CO)O[C@@H]5CO)O[C@@H]4CO)O[C@@H]3CO [β-CD]

From PMC4164441, “The Characterisation of an Alkali-Stable Maltogenic Amylase from Bacillus lehensis G1 and Improved Malto-Oligosaccharide Production by Hydrolysis Suppression” (PLoS ONE, 2014)
